From publication PMC11571797, “Vitamin B6 inhibits activity of Helicobacter pylori adenylosuccinate synthetase and growth of reference and clinical, antibiotic-resistant H. pylori strains” (Journal of Enzyme Inhibition and Medicinal Chemistry, 2024)

Biological target: T1, adenylosuccinate synthetase (AdSS) (Helicobacter pylori, UniProt P56137)
T1 construct: gene purA
Test: X-ray crystal structure with IMP ([…] A); enzyme inhibition, GTP-competitive, and time-dependent inactivation (IC50^eq […] without GTP)
Assay type: biochemical

T1 sequence (P56137 whole entry): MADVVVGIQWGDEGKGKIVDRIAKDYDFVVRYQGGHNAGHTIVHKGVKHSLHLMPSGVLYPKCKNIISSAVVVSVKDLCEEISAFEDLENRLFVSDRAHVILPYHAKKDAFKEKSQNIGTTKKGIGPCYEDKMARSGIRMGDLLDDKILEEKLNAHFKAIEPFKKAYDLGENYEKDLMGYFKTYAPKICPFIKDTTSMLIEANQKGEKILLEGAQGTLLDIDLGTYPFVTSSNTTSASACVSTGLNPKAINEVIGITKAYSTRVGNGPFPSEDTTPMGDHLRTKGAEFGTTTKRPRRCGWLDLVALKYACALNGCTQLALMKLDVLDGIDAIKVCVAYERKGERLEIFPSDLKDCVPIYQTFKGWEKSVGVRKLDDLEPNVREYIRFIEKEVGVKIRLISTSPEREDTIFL

`Cc1ncc(COP(=O)(O)O)c(C=O)c1O` [PLP, pyridoxal 5'-phosphate] gave a Ki of 6.95 µM.
